Test results as given in paper PMC8335727 (Inorganic Chemistry, 2021).
Several values for one entry are separate records, joined by “and”; a condition that tells them apart may be missing. Identical values can stand only once.

Assays:
[1] = system: MRC-5; test: MTT cytotoxicity assay, MRC-5; format: cell-based; conditions: Homo sapiens, MRC5, 72 h of exposure
Description: 2.5. In vitro cell studies
2.5.1. Cell lines and culture conditions
All cell culture reagents were obtained from Sigma-Aldrich and plastic ware from Sarstedt […]
MRC-5 human embryonal lung fibroblast cell line (ATCC CCL-171) was purchased from LGC
Promochem, Teddington, UK. The cell line was cultured in Eagle’s Minimal Essential Medi um
(EMEM, containing 4.5 g/L glucose) supplemented with a non-essential amino acid mixture, a
selection of vitamins and 10% heat-inactivated fetal bovine serum. The cells were incubated at
37°C, in a 5% CO2, 95% air atmosphere. All cell lines were detached with Trypsin-Versene
(EDTA) solution for 5 min at 37 °C.
The tested compounds were dissolved in DMSO using 10 mM concentration. Then stock solutions
were diluted in complete culture medium in 96-well microtiter plates, and two-fold serial dilutions
of compounds were prepared in 100 µL of RPMI 1640, horizontally. The semi-adherent colonic
adenocarcinoma cells were treated with Trypsin -Versene (EDTA) solution. They were adjusted to
a density of 1×10^4 cells in 100 µL of RPMI 1640 medium, and were added to each well, with the
exception of the medium control wells. The final volume of the wells containing compounds and
cells was 200 µL. The culture were incubated at 37 °C for 72 h; at the end of the incubation period,
20 µL of MTT solution (from a stock solution of 5 mg/mL) were added to each well. After
incubation at 37 °C for 4 h, 100 µL of SDS solution (10% in 0.01 M HCI) were added to each well
and the plates were further incubated at 37 °C overnight. The cell growth was determined using
both methods by measuring the optical density (OD) at 450 nm (ref. 620 nm) with a Multiscan EX
ELISA reader. Inhibition of the cell growth (expressed as IC 50: inhibitory concentration that
reduces by 50% the growth of the cells exposed to the tested compounds) was determined from
the sigmoid curve where 100 – ((ODsample ‒ ODmedium control)/(ODcell control ‒ ODmedium control)) × 100
values were plotted against the logarithm of compound concentrations. […]

[2] = system: Colo320 cells; test: Annexin-V-FITC/PI apoptosis induction assay (flow cytometry); format: cell-based, human; conditions: for Cell death % Q1 / Early apoptosis % Q3 / Late apoptosis and necrosis % Q2: 3 h induction
Description: To gain further insights into the cytotoxic behavior of the compounds, apoptosis induction by lead compounds HL^1 and [Cu(L^2)Cl] was investigated by a flow cytometry analysis of multidrug-resistant Colo320 cells stained with Annexin-V-FITC and propidium iodide (PI).
Colo320 cells were treated at the indicated concentration of the drugs. The dual parametric dot plots that combine the Annexin-V (FL1) and PI (FL3) fluorescence show the viable cell population in the lower-left quadrant Annexin-V–/PI– (Q4), the early apoptotic cells in the lower-right quadrant Annexin-V+/PI– (Q3), and the late apoptotic and necrotic cells in the upper-right quadrant Annexin-V+/PI+ (Q2). […]
2.5.3. Mechanisms of cell death: assay for apoptosis induction
The assay was carried out for selected compounds using an Annexin V-FITC Apoptosis Detection
Kit (Cat. No. APOAF-50TST) from Sigma according to the manufacturer's instructions. The
concentration of the Colo320 cell suspension was adjusted to approximately 0.5 × 10^6 cells per
mL in RPMI medium and the cell suspension was distributed in 1 mL aliquots into a 24-well plate,
and then incubated overnight at 37 °C and 5% CO2. On the following day, the medium was
removed and replaced by 1 mL RPMI medium containing the compounds except the control
samples. Colo320 cells were incubated in the presence of the compounds at 4 and 8 μM (HL1), or
0.25 and 0.50 μM (Cu(HL2)Cl2) in the 24-well plate at 37 °C for 3 h, and 12H-
controls. After the incubation period the samples were washed with PBS and fresh RPMI medium
was added to the samples. The cells were incubated overnight at 37 °C and 5% CO2. The next day,
200 μL 0.25% Trypsin (Trypsin-Versen) was added to the samples until cells appeared detached
followed by the addition of 400 μL of RPMI medium supplemented with 10% bovine serum. The
cells were collected in Eppendorf tubes and centrifuged at 2000 g for 2 min. The harvested cells
were resuspended in fresh serum free RPMI medium culture medium. After this step, the apoptosis
assay was carried out according to the instructions of the manufacturer. The fluorescence was
analyzed immediately using a ParTec CyFlow flow cytometer (Partec GmbH, Münster, Germany). […]

[3] = system: SW480 cells; test: Cell cycle distribution by flow cytometry; format: cell-based, human; conditions: 24 h
Text: […] TEXT PRINTED IN THE PICTURE: (A) no label printed: S: 27.7% | (B) no label printed: S: 33.8% | (C) no label printed: S: 44.0% | (D) no label printed: S: 46.5% DOUBTS OF THE COPYIST ABOUT THIS PICTURE: No substance labels are printed in the picture, only the panel letters A-D. / The phase label "S" is printed only in panel A. Applying it to the percentages in panels B, C and D is assumed from where the marker line sits.

SMILES	IC50 [1]	Cell death % Q1 ([2]; 4 µM)	Early apoptosis % Q3 ([2]; 4 µM)	Late apoptosis and necrosis % Q2 ([2]; 4 µM)	Cell death % Q1 ([2]; 8 µM)	Early apoptosis % Q3 ([2]; 8 µM)	Late apoptosis and necrosis % Q2 ([2]; 8 µM)	viability at 4 µM ([2]; Homo sapiens, COLO 320, 4 μM, read-out: viable cell population Q4)	G1 phase cells ([3]; 1 µM)	G2 phase cells ([3]; 1 µM)	S phase cells ([3]; 1 µM)	G0/G1 phase cells ([3]; 10 µM)	G2/M phase cells ([3]; 10 µM)	S phase cells ([3]; 10 µM)
Cc1cc(NC(=S)NN=Cc2ccccn2)cc(C)c1O [HL^1, 2-Formylpyridine 4-(4-hydroxy-3,5-dimethylphenyl)thiosemicarbazone]	> 100 µM	2.79%	6.19%	12.4%	1.57%	7.65%	7.0%	78.6%	48.5%	19.4%	32.0%	49.2% and 49.2 ± 1.6%	12.3% and 12.3 ± 4.4%	37.1 ± 4.7%
Cc1cc(NC(=S)NN=Cc2ncccc2N)cc(C)c1O [HL^3, 3-Amino-2-formylpyridine 4-(4-hydroxy-3,5-dimethylphenyl)thiosemicarbazone]	> 100 µM	–	–	–	–	–	–	–	–	–	–	–	–	–
CC(=NNC(=S)Nc1cc(C)c(O)c(C)c1)c1ccccn1 [HL^2, 2-Acetylpyridine 4-(4-hydroxy-3,5-dimethylphenyl)thiosemicarbazone]	> 100 µM	–	–	–	–	–	–	–	–	–	–	–	–	–
